Where “and” joins values, the source holds several entries; their conditions need not be identical. Equal values may be shown once.

The assay deals with OVCAR-5 complex spheroids with HUVEC/MSC, viability, % test/control. As to the kind of experiment: Anticancer human tumor OVCAR-5 cell line growth inhibition [AhR].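 As to all read-outs here: spheroids exposed to compounds for 7 days.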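 As to viability, T/C: 100% = DMSO vehicle control wells.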 To be noted: for viability, T/C: stronger effect = lower value. The source says:
Multicellular complex tumor spheroid response to aryl hydrocarbon receptor antagonists in combination with a variety of drugs and investigational agents in selected tumor cell lines
The current study was undertaken to assess response to aryl hydrocarbon receptor antagonists in combination with standard-of-care drugs and investigational agents in solid tumor complex spheroid models. Complex spheroids include a stromal component modeled by human endothelial cells (HUVEC) and fibroblasts modeled by human mesenchymal stem cells (MSCs). The concentration ranges selected for each drug and investigational agent were based upon clinically achievable concentrations if the clinical Cmax of the agent was known.
Compounds. The drugs and investigational agents: BAY 2416964 (NSC825713), GNF351 (NSC835774), CH-223191 (NSC835775), CPI-455 (NSC825282), aza-TdCyd (NSC777586), decitabine (NSC127716), belinostat (NSC758774), entinostat (NSC756642), pevonedistat (NSC761192), tazemetostat (NSC777109), talazoparib (NSC765396), olaparib (NSC753686), selinexor (NSC780203), nedisertib (M3814, NSC802822), bortezomib (NSC756655), venetoclax (NSC766270), doxorubicin (NSC123127), elimusertib (BAY189344, NSC800525), ceralasertib (AZD6738, NSC777638), TAK-243 (NSC785004), alisertib (NSC759677), etoposide (NSC141540), topotecan (NSC609699), eribulin (NSC707389), gemcitabine (NSC613327), carboplatin (NSC241240), cisplatin (NSC119875), and SN-38 (NSC673596) were obtained from the National Cancer Institute (NCI) Developmental Therapeutics Program Chemical Repository (32). The FDA-approved anticancer drug set is available from the Developmental Therapeutics Program at https://dtp.cancer.gov/organization/dscb/obtaining/available plates.htm. […] The stock solutions were prepared in dimethyl sulfoxide (DMSO, Sigma-Aldrich, St. Louis, MO, cat. D2650), except for the platinum compounds which were prepared in saline (Quality Biological, Gaithersburg, MD, cat. 114-055-101), at 800-fold the tested concentration and stored at -70 degrees C prior to their use. All drugs and investigational agents were tested over a range starting from a high concentration at or near the clinical Cmax and decreasing in half-log increments. If the clinical Cmax for an agent had not been determined, the highest concentration tested was 10 microM (Table 1).
Cell Culture. All cells were maintained in an incubator at 37 degrees C and 5% CO2 with 95% humidity. The PDC lines were cultured according to standard operating procedures established by the NCI PDMR (https://pdmr.cancer.gov). Briefly, all PDCs were thawed and cultured in Matrigel-coated flasks prepared with a working solution of 1X Ham's F-12 nutrient mix, without supplementation (Invitrogen, Waltham, MA, cat. 11765054), 100 U/mL penicillin-streptomycin (Invitrogen, cat. 15140122), and 2.5% Matrigel (Corning Inc., Corning, NY, cat. 354248) for the first three passages. All PDCs were cultured in complete DMEM/F-12 media containing advanced DMEM/F-12 (Invitrogen, cat. 12634028), 4.9% defined fetal bovine serum, heat inactivated (HyClone Laboratories Inc., Logan, UT, cat. SH30070.03HI), 389 ng/mL hydrocortisone (Sigma-Aldrich, cat. H4001), 9.7 ng/mL human EGF recombinant protein (Invitrogen, cat. PHG0313), 23.4 microg/mL adenine (Sigma-Aldrich, cat. A2786), 97.3 U/mL penicillin-streptomycin (Invitrogen, cat. 15140122), 1.9 mM L-glutamine (Invitrogen, cat. 25030081), and 9.7 microM Y-27632 dihydrochloride (Tocris Bioscience, Bristol, United Kingdom, cat. 1254). The PDCs were cultured in complete DMEM/F12 media without 10 microM Y-27632 dihydrochloride for at least two passages prior to the screen. The established cell lines NCI-H1341 and […] were cultured in DMEM/F-12, HEPES (Invitrogen, cat. 11330032), 5% defined fetal bovine serum (HyClone Laboratories Inc., cat. SH30070.03), ITS premix universal culture supplement [insulin (5 microg/mL), transferrin (5 microg/mL), and selenious acid (5 ng/mL)] […]

The mark [1] stands for this setting: curve of first compound, second compound 0.1 µM.
Setting [2] is: curve of first compound, second compound 0.316 µM.
The mark [3] stands for this setting: curve of first compound, second compound 1 µM.
[4] abbreviates: curve of first compound, second compound 3.16 µM.
Setting [5] is: curve of first compound, second compound 10 µM.
Setting [6] is: second compound 0.1 µM, first compound 0.0316 µM.
Setting [7] is: second compound 0.1 µM, first compound 0.1 µM.
The mark [8] stands for this setting: second compound 0.1 µM, first compound 0.316 µM.
Where [9] appears, read: second compound 0.1 µM, first compound 1 µM.
Setting [10] is: second compound 0.1 µM, first compound 3.16 µM.
[11] abbreviates: second compound 0.1 µM, first compound 10 µM.
[12] abbreviates: second compound 0.316 µM, first compound 0.0316 µM.
Where [13] appears, read: second compound 0.316 µM, first compound 0.1 µM.
[14] abbreviates: second compound 0.316 µM, first compound 0.316 µM.
[15] abbreviates: second compound 0.316 µM, first compound 1 µM.
Setting [16] is: second compound 0.316 µM, first compound 3.16 µM.
Setting [17] is: second compound 0.316 µM, first compound 10 µM.
The mark [18] stands for this setting: second compound 1 µM, first compound 0.0316 µM.
Setting [19] is: second compound 1 µM, first compound 0.1 µM.
[20] abbreviates: second compound 1 µM, first compound 0.316 µM.
The mark [21] stands for this setting: second compound 1 µM, first compound 1 µM.
[22] abbreviates: second compound 1 µM, first compound 3.16 µM.
Setting [23] is: second compound 1 µM, first compound 10 µM.
Setting [24] is: second compound 3.16 µM, first compound 0.0316 µM.
The mark [25] stands for this setting: second compound 3.16 µM, first compound 0.1 µM.
Where [26] appears, read: second compound 3.16 µM, first compound 0.316 µM.
Where [27] appears, read: second compound 3.16 µM, first compound 1 µM.
Where [28] appears, read: second compound 3.16 µM, first compound 3.16 µM.
[29] abbreviates: second compound 3.16 µM, first compound 10 µM.
Where [30] appears, read: second compound 10 µM, first compound 0.0316 µM.
Where [31] appears, read: second compound 10 µM, first compound 0.1 µM.
[32] abbreviates: second compound 10 µM, first compound 0.316 µM.
[33] abbreviates: second compound 10 µM, first compound 1 µM.
[34] abbreviates: second compound 10 µM, first compound 3.16 µM.
[35] abbreviates: second compound 10 µM, first compound 10 µM.

A word on the IC50: it is the concentration needed to halve the response being measured. What is called viability, T/C is the result in the treated group divided by that in the control group, in per cent. In the case of `Nc1ccn(C2OC(CO)C(O)C2(F)F)c(=O)n1` (centres undefined) + CC(CO)NC(=O)c1cc(-c2ccc(Cl)cc2)nn(-c2cnn(C)c2)c1=O, the IC50 reads like this: under setting [1], less than 31.6 nM; under setting [2], less than 31.6 nM; under setting [3], less than 31.6 nM; under setting [4], less than 31.6 nM; under setting [5], less than 31.6 nM. The viability, T/C is 34.6% under setting [6]; 32.1% under setting [7]; 28.1% under setting [8]; 29.9% under setting [9]; 30.9% under setting [10]; 29.4% under setting [11]. The viability, T/C under setting [12] is 32.9%; the viability, T/C under setting [13] was 29.8%; the viability, T/C under setting [14] is 28.9%; the viability, T/C under setting [15] is 28.5%; the viability, T/C under setting [16] was 31.5%; the viability, T/C under setting [17] is 30.2%. The viability, T/C by setting is: under setting [18], 36.1%; under setting [19], 32.4%; under setting [20], 29.6%; under setting [21], 30.4%; under setting [22], 31.3%; under setting [23], 30.1%. The viability, T/C is, setting by setting: under setting [24], 37%; under setting [25], 32.3%; under setting [26], 29.6%; under setting [27], 28.9%; under setting [28], 28.7%; under setting [29], 29.6%. Moreover, the viability, T/C under setting [30] is 39.6%; the viability, T/C under setting [31] was 33.9%; the viability, T/C under setting [32] is 30.9%; the viability, T/C under setting [33] is 31.2%; the viability, T/C under setting [34] was 32.8%; the viability, T/C under setting [35] was 33.8%.

`O=C(C=Cc1cccc(S(=O)(=O)Nc2ccccc2)c1)NO`: the viability, T/C runs as follows: (compound 0.0316 µM) 94.1% and 97.8% and 90.4%; (compound 0.1 µM) 93.2% and 88% and 88.8%; (compound 0.316 µM) 76.5% and 73.4% and 70.6%; (compound 1 µM) 59.4% and 55.6% and 52.8%; (compound 3.16 µM) 30.6% and 24.4% and 27.7%; (compound 10 µM) 7.78% and 5.16% and 5.95%. For the same molecule, the IC50 (curve of compound) is 1410 nM and 1120 nM and 1110 nM.

In the case of `O=C(c1cc(Cc2n[nH]c(=O)c3ccccc23)ccc1F)N1CCN(C(=O)C2CC2)CC1`, the viability, T/C is 98.3% and 103% and 100% (compound 0.0316 µM); 97.6% and 99% and 96.8% (compound 0.1 µM); 92.4% and 97.2% and 96.1% (compound 0.316 µM); 93% and 93.2% and 98.6% (compound 1 µM); 90.9% and 91% and 92.9% (compound 3.16 µM); 83.3% and 83.5% and 84.2% (compound 10 µM). Further, the IC50 (curve of compound) was greater than 10000 nM.

Regarding `O=C(c1cc(Cc2n[nH]c(=O)c3ccccc23)ccc1F)N1CCN(C(=O)C2CC2)CC1` + Cc1ccccc1N=Nc1ccc(NC(=O)c2ccnn2C)c(C)c1, the concentration for half-maximal inhibition (IC50) by setting is: under setting [1], greater than 10000 nM; under setting [2], greater than 10000 nM; under setting [3], greater than 10000 nM; under setting [4], greater than 10000 nM; under setting [5], greater than 10000 nM. Besides, the viability, T/C was 103% under setting [6]; 105% under setting [7]; 102% under setting [8]; 99.8% under setting [9]; 92.5% under setting [10]; 85% under setting [11]. Besides, the viability, T/C reads like this: under setting [12], 107%; under setting [13], 109%; under setting [14], 105%; under setting [15], 104%; under setting [16], 98.3%; under setting [17], 90.6%. Moreover, the viability, T/C under setting [18] is 111%; the viability, T/C under setting [19] was 114%; the viability, T/C under setting [20] was 115%; the viability, T/C under setting [21] is 109%; the viability, T/C under setting [22] was 101%; the viability, T/C under setting [23] was 94.2%. The viability, T/C by setting is: under setting [24], 111%; under setting [25], 115%; under setting [26], 114%; under setting [27], 106%; under setting [28], 107%; under setting [29], 99.4%. Besides, the viability, T/C was 99.3% under setting [30]; 110% under setting [31]; 103% under setting [32]; 106% under setting [33]; 96.7% under setting [34]; 89.1% under setting [35].

For `COc1cc(C2c3cc4c(cc3C(OC3OC5COC(C)OC5C(O)C3O)C3COC(=O)C23)OCO4)cc(OC)c1O` (centres undefined) + Cc1cncc(-c2nc(NCCc3c[nH]c4ccccc34)c3ncn(C(C)C)c3n2)c1, the half-inhibitory concentration (IC50) was 2680 nM under setting [1]; 2940 nM under setting [2]; 2360 nM under setting [3]; 909 nM under setting [4]; less than 31.6 nM under setting [5]. The viability, T/C is, setting by setting: under setting [6], 97.2%; under setting [7], 97.1%; under setting [8], 90.8%; under setting [9], 68.8%; under setting [10], 47.8%; under setting [11], 36.1%. Besides, the viability, T/C under setting [12] was 97.1%; the viability, T/C under setting [13] is 93.3%; the viability, T/C under setting [14] was 86%; the viability, T/C under setting [15] was 67.7%; the viability, T/C under setting [16] is 49%; the viability, T/C under setting [17] was 37.6%. The viability, T/C is, setting by setting: under setting [18], 90%; under setting [19], 91.6%; under setting [20], 79.7%; under setting [21], 62.9%; under setting [22], 46.1%; under setting [23], 37.4%. Besides, the viability, T/C by setting is: under setting [24], 79.8%; under setting [25], 80.1%; under setting [26], 67.9%; under setting [27], 48.1%; under setting [28], 37.6%; under setting [29], 33%. The viability, T/C is 9.11% under setting [30]; 9.43% under setting [31]; 7.81% under setting [32]; 4.62% under setting [33]; 3.56% under setting [34]; 7.82% under setting [35].

The values are drawn from PubChem BioAssay AID1919015 (Molecular Pharmacology Branch, DTP, NCI, 2023).
